Data from PubChem BioAssay (NCI).
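Dose response: 5 concentrations. Exposure: 48 h. Format: 96-well plates. Endpoint: linear interpolation; highest concentration if not reached. TGI marks complete inhibition of growth.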

Columns and labels:
Test in all cases: NCI anticancer screen, dose series, 48 h
[1] = tested on: HL-60(TB) leukemia
[2] = tested on: NCI-H23 lung
[3] = tested on: SR leukemia
[4] = tested on: 786-0 renal
[5] = tested on: EKVX NSCLC
[6] = tested on: HOP-62 NSCLC
[7] = tested on: HCC-2998 colon
[8] = tested on: KM12 colon
[9] = tested on: DU-145 prostate
[10] = tested on: RPMI-8226 leukemia
[11] = tested on: UO-31 renal
[12] = tested on: MDA-MB-435
[13] = tested on: U251 CNS
[14] = tested on: HT29 colon
[15] = tested on: ACHN renal
[16] = tested on: CAKI-1 renal
[17] = tested on: SF-295 CNS
[18] = tested on: PC-3 prostate
[19] = tested on: A498 renal
[20] = tested on: SF-539 CNS

Row | Structure (SMILES) | TGI [1] | TGI [2] | TGI [3] | TGI [4] | TGI [5] | TGI [6] | TGI [7] | TGI [8] | TGI [9] | TGI [10] | TGI [11] | TGI [12] | TGI [13] | TGI [14] | TGI [15] | TGI [16] | TGI [17] | TGI [18] | TGI [19] | TGI [20]
1 | O=C(O)CCCn1nnc2c(=O)[nH][nH]c(=O)c21 | > 100 µM | > 100 µM | > 100 µM | > 100 µM | > 100 µM | > 100 µM | > 100 µM | > 100 µM | > 100 µM | > 100 µM | > 100 µM | > 100 µM | > 100 µM | > 100 µM | > 100 µM | > 100 µM | > 100 µM | > 100 µM |  | 
2 | Cc1c(C)c(C)n(C2OC(CO)C(O)C(O)C2O)c(=S)c1C#N (centres undefined) | > 100 µM | > 100 µM | > 100 µM | > 100 µM | > 100 µM | > 100 µM | > 100 µM | > 100 µM | > 100 µM |  | > 100 µM | > 100 µM | > 100 µM | > 100 µM | > 100 µM |  | > 100 µM | > 100 µM | > 100 µM | > 100 µM
3 | N#Cc1c(=O)n(-c2ccccc2)c(O)c2c(N)n[nH]c12 | > 100 µM | > 100 µM | > 100 µM | > 100 µM | > 100 µM |  | > 100 µM | > 100 µM | > 100 µM | > 100 µM | > 100 µM | > 100 µM | > 100 µM | > 100 µM |  | > 100 µM |  | > 100 µM | > 100 µM | > 100 µM
4 | Cc1ccc([N+](=O)[O-])cc1S(=O)(=O)Nc1ccc(C2=NN(c3ccc([N+](=O)[O-])cc3[N+](=O)[O-])C(c3cccs3)C2)cc1 (centres undefined) | 62.9 µM | 44.1 µM | 58.6 µM | 38.6 µM | 59.2 µM | 58.3 µM |  | 55.6 µM | > 100 µM | 60.5 µM | > 100 µM | 51.4 µM | 72.3 µM | > 100 µM | 81.6 µM | > 100 µM | > 100 µM | > 100 µM |  | 71.2 µM
5 | c1ccc2c(c1)CC1=C(O2)c2ccccc2OC1 |  | > 100 µM | > 100 µM | 32.6 µM | 45.7 µM | > 100 µM | 42.2 µM | > 100 µM | > 100 µM | 67.3 µM | > 100 µM | 86.3 µM | 59.2 µM | > 100 µM | > 100 µM | 49.5 µM | > 100 µM | > 100 µM | > 100 µM | 71.6 µM
6 | CCOC(=O)c1oc2cc3c(c4c2c1-c1ccccc1N4C)C=CC(C)(C)O3 | > 100 µM | > 67.4 µM |  | > 53 µM | 46.6 µM | 24.7 µM | > 100 µM | > 80.4 µM | > 70 µM | > 64 µM | 65.5 µM | > 100 µM | 31 µM | > 64 µM | 30.5 µM | 40.8 µM | 30.8 µM | > 55.3 µM | > 71.4 µM | 21.2 µM
